Measurements as given in publication PMC10223552 (Pharmaceuticals, 2023).
Several values for one entry are separate records, joined by “and”; a condition that tells them apart may be missing. Equal values may be shown once. Read-outs that look alike come from different tables or passages of the source.

Key:
[1] = system: MDA-MB-231 breast cancer cells; assay: Apoptosis/necrosis detection (Annexin V-FITC/PI, image cytometry), MDA-MB-231; format: cell-based, human; settings: 48 h
Method: The MTT test results prompted further study. Staining with propidium iodide and Annexin V-FITC was performed to distinguish apoptotic from necrotic cell death.
Apoptosis was analyzed using the NucleoCounter® NC-3000™ (Chemometec Inc., Lillerød, Denmark) according to the manufacturer’s protocol using Annexin V from Biotium (Fremont, CA, USA). MCF-7 and MDA-MB-231 cells were seeded into 6-well plates (2 × 10^5 cells/mL) and cultured until 70–80% confluence was reached. […] Scatter plots were used to determine the proportion of healthy cells (Annexin V-negative/PI-negative cells), early apoptotic cells (Annexin V-positive/PI-negative cells), late apoptotic cells (Annexin V-positive/PI-positive cells), and necrotic cells (Annexin V-negative/PI-positive cells). Data were derived from three independent experiments with three replicates.

eeAChE = target: T1, eeAChE (Electrophorus electricus, UniProt O42275); assay: biochemical; design: species or system electric eel; settings: 10 µM; read-out: eeAChE % inh. (10 µM) ± SD
T1 construct: purchased Sigma–Aldrich (Steinheim, Germany)
T1 sequence (O42275 24-633): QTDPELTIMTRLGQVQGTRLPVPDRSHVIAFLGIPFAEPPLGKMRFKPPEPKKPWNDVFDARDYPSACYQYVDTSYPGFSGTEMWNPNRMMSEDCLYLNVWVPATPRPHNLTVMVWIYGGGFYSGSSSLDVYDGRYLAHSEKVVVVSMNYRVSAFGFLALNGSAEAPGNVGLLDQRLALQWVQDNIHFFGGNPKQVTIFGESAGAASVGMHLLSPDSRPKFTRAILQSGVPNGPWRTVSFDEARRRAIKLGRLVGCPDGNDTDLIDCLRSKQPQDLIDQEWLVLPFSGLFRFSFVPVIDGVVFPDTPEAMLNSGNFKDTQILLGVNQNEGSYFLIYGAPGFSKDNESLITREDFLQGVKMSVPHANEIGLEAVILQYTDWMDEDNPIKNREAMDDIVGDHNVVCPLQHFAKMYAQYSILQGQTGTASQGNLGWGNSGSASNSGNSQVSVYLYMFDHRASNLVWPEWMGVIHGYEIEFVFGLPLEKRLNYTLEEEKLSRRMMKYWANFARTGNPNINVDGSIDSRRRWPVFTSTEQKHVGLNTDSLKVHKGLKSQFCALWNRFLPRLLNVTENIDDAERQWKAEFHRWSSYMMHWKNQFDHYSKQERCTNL

gpH3R = target: T2, gpH3R (Cavia porcellus, UniProt Q9JI35); assay: Ex vivo assay for histamine H3R antagonists on electrically stimulated guinea pig ileum
T2 construct: from tissue; host or cells: isolated distal ileum of male guinea pigs
T2 sequence (Q9JI35 whole entry): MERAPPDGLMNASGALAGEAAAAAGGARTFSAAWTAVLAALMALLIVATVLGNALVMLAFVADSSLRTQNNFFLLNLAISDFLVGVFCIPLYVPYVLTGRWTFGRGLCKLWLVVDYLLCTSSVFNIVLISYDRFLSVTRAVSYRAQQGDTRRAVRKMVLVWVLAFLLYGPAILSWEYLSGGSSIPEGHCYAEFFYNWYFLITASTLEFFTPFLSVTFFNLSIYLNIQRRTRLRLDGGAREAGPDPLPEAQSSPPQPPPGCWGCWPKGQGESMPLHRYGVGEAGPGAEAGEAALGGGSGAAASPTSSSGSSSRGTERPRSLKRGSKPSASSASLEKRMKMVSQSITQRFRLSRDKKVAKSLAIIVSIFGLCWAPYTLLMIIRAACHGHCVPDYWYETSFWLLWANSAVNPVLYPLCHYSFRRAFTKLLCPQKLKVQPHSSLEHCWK
Method: All newly synthesized compounds were evaluated as H3R antagonists/inverse agonists on the guinea pig ileum (gpH3R), stimulated electrically to induce contractions. The distinct affinity profile and species-dependent pharmacology of H3R ligands are known. […] Therefore, to compare species differences, all newly synthesized compounds were subjected to radioligand displacement assay in membrane fractions of HEK-293 cells stably expressing hH3R.
(§1) Ex vivo assay for histamine H3R and H1R antagonists were measured on the isolated guinea pig ileum stimulated to contractions by histamine. The pA2-values were calculated according to Arunlakshana and Schild. The radioligand-displacement binding assay was performed in membrane fractions of HEK-293 cells stably expressing hH3R. Cell cultivation and membrane preparation was performed according to Kottke et al.. The Ki values were calculated from the IC50 values using the Cheng–Prusoff equation [37]. The statistical calculations were performed on –log(Ki). […] The inhibitory activities of novel ADS compounds were assessed in spectrophotometric Ellman’s assay using AChE from electric eel (eeAChE) and BuChE from horse serum (eqBuChE).
3. Pharmacological assay results.
3.1. Ex vivo assay for histamine H3R receptor antagonists on guinea pig ileum.
Male guinea pigs, weighing 300-400 g were euthanized by a blow to the neck. Following this, a 20-30 cm length of the distal ileum, apart from the terminal 5 cm was rapidly removed and placed in phosphate buffer at room […]
indomethacin (Sigma-Aldrich, St. Louis, MO, USA) (1·10-6 mol/L). The intraluminal content was rinsed and the isolated intestine was cut into 1.5-2 cm segments. The preparations were mounted between two platinum electrodes […]
load of 1.0 g (Hugo Sachs Hebel-Messvorsatz (Tl-2)/HF-modem; Hugo Sachs Elektronik, Hugstetten, Germany) connected to a pen recorder (Kipp & Zonen BD41, Delft, Holland). During an equilibration period of 60 min, the Krebs buffer was changed every 10 min. The preparations were then continuously stimulated at 15-20 V at a frequency of 0.1 Hz for a duration of 0.5 ms, with rectangular-wave electrical pulses (Grass Stimulator S-88; Grass Instruments Co., Quincy, Massachusetts, USA). […] Five minutes […]
before (R)-(−)-α-methylhistamine (RAMH) (Toronto Research Chemicals Inc., North York, Canada), […]
added. The first cumulative concentration-response curve was determined to RAMH (10 nM – 10 mM) at an […]
The second to fourth curve was measured against increasing antagonist concentration (incubation time 20 min). The pA2-values were calculated according to Arunlakshana and Schild. [Br J Pharmacol Chemother. […] Statistical analysis was carried out with the Students’ t-test. In all tests, a p<0.05 was considered statistically significant. The pA2 values were compared with the affinity of thioperamide (Sigma-Aldrich, St. Louis, MO, USA).

hH3R = target: T3, hH3R (Homo sapiens, UniProt Q9Y5N1); assay: biochemical; format: binding
T3 construct: expressed in transfected cells
T3 sequence (Q9Y5N1 whole entry): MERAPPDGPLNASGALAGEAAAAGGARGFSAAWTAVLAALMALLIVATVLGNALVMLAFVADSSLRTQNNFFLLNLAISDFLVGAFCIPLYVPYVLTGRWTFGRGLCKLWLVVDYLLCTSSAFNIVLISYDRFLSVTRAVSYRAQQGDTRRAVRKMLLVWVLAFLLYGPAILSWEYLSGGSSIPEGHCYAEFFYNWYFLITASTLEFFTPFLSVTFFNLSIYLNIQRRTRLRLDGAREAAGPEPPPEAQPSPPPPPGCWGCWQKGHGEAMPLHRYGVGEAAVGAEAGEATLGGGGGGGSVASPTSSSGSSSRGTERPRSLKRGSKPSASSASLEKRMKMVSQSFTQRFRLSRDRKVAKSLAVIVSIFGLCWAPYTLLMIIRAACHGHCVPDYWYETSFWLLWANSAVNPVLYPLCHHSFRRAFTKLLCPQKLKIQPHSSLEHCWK
Method: as §1, with “All newly synthesized compounds were evaluated as H3R antagonists/inverse agonists on the guinea pig ileum (gpH3R), stimulated electrically to induce contractions. The distinct affinity profile and species-dependent pharmacology of H3R ligands are known. […] Therefore, to compare species differences, all newly synthesized compounds were subjected to radioligand displacement assay in membrane fractions of HEK-293 cells stably expressing hH3R. […] Ex” for “Ex”
3.3 hH3R radioligand displacement binding assay.
The radioligand displacement binding assay was performed in membrane fractions of HEK-293 cells stably expressing hH3R. Cell cultivation and membrane preparation was performed according to Kottke et al. [T. Kottke, […]
radioligand displacement assay, radioactively labeled [3H]Nα-methylhistamine was used at a final concentration […]
The total assay volume was set to 200 µL. The compounds were tested in several appropriate concentrations between 100 µM and 0.1 nM. Pipetting was partly done by Freedom Evo® (Tecan).
The membrane fraction (20 […]
µg/well), test compounds and radiolabeled ligand were incubated for 90 minutes at 25 °C while shaking. The bound radioligand was separated from the free radioligand by filtration through GF/B filters pre-treated with 0.3 % (m/v) polyethyleneimine using a cell harvester. Radioactivity was determined by liquid scintillation counting using a MicroBeta® Trilux (Perkin Elmer). The data was obtained in duplicates in at least three independent experiments. Non-specific binding was subtracted from the raw data to calculate specific-binding values. The evaluation was performed with GraphPad Prism 6.1 (San Diego, CA, USA) using non-linear regression (one-site competition with a logarithmic scale). The Ki values were calculated from the IC50 values using the Cheng-Prusoff […]
equation. [C. […] The statistical calculations […]
were performed on –log(Ki).

eqBuChE = eqBuChE (Equus caballus, UniProt P81908); assay: biochemical; settings: for inhibition at 10 µM: read-out: eqBuChE % inh. (10 µM) ± SD; for IC50: read-out: eqBuChE IC50 ± sem
Sequence of eqBuChE (P81908 whole entry): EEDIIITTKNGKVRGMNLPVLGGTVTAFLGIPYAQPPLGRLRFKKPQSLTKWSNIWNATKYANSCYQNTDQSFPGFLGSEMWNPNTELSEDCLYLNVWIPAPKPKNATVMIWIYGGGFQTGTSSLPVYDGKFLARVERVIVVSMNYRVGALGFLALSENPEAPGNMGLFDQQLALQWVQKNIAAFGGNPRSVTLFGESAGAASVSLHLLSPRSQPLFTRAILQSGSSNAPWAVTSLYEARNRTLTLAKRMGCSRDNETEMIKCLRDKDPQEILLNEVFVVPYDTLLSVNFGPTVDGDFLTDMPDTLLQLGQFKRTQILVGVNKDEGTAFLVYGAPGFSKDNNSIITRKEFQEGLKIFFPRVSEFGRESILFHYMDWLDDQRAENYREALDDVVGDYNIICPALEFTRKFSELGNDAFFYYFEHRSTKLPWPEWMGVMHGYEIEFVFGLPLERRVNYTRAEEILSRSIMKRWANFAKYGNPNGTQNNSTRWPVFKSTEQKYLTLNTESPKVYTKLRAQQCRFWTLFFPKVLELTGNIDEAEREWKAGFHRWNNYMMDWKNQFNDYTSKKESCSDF

Compound | early apoptotic cells (Q1lr) ([1]; MDA-MB-231, IC50 concentration) | late apoptotic cells (Q1ur) ([1]; MDA-MB-231, IC50 concentration) | inhibition at 10 µM (eeAChE) | gpH3R pA2 ± sem (gpH3R; isolated guinea pig ileum, vs RAMH, 20 min) | Ki (hH3R; mean ± sem, at least three independent experiments, read-out: hH3R -log(Ki) ± sem (converted)) | inhibition at 10 µM (eqBuChE) | IC50 (eqBuChE) | mode of cell death (in words) ([1]; both breast cancer lines, IC50 concentration) | Kb (gpH3R) | Ki (hH3R; hH3R Ki)
N=C(N)N(CCCCN1CCN(CCCCCCCOc2ccccc2)CC1)Cc1ccccc1 [ADS1017] | 22% | 39% | 49.7 ± 0.7% | 8.21 ± 0.15 | 513 nM | 70.8 ± 0.6% | 5100 ± 100 nM |  |  | 
Cl.Cl.N=C(NCCCCc1ccc(Cl)cc1)NCCCCN1CCCCC1 [ADS10310] |  |  | 7.3 ± 0.9% |  |  | 83.9 ± 0.1% | 1700 ± 100 nM | mainly late apoptotic cells | 19.1 nM | < 200 nM and 127 nM
